# Earlier results as cited in patent US20090306027A1 (priority 2006, published 2009).
# Structures can show the parent of a compound that is named as a salt.
solubility in alcohol (alcohol),solubility in ether (ether),SMILES,"solubility in organic solvents (organic solvents such as ethanol, ether and chloroform)",solubility in water
–,–,"O=[N+]([O-])O[C@H]1CO[C@H]2[C@@H]1OC[C@H]2O[N+](=O)[O-] [Diluted isosorbide dinitrate, 1,4,3,6-dianhydro-D-glucitol-2,5-dinitrate]",freely soluble,sparingly soluble
slightly soluble,very slightly soluble,"NNc1nncc2ccccc12 [Hydralazine hydrochloride, hydralazine hydrochloride]",–,soluble
